From patent US20220387405A1, “METHODS OF TREATMENT WITH N-((R)-1-(3-CHLOROPYRIDIN-2-YL)-2,2,2-TRIFLUOROETHYL)-2-((S)-2,6-DIOXOPIPERIDIN-3-YL)-1-OXOISOINDOLINE-5-CARBOXAMIDE” (CELGENE CORPORATION, priority 2021, published 2022)

Legend:
[1] = system: human peripheral blood (PB) lymphocytes; test: In vitro mammalian cell micronucleus test; settings: 4 hours with and without S9, 24 hours without S9; compared with negative controls
Description: Compound 1 was tested in the in vitro mammalian cell micronucleus test in human peripheral blood (PB) lymphocytes in the presence and absence of a metabolic activation system, Aroclor-induced rat liver fraction (S9), for 4 hours, and in the absence of S9 for 24 hours. The highest concentration tested was 481 μg/mL. Dimethyl sulfoxide (DMSO) was used as the solvent. […] In addition, 2 lower concentrations with appropriate concentration and cytotoxicity spacing were chosen for micronucleus scoring in each regime.

[2] = system: Normal T lymphocytes in BM samples; test: PharmaFlow test, normal T lymphocytes in AML patient BM samples; assay type: cell-based, human; settings: BM samples of AML patients; for Compound 1 all but 1 patient
[3] = system: leukemic cells from TP53 WT AML patients; test: PharmaFlow test (Vivia), cytotoxic effect on leukemic cells in AML patient BM samples; assay type: cell-based, human; settings: AML patient samples

Row | SMILES | proportion of micronucleated binucleate cells (MBC) [1] | cytotoxicity in T lymphocytes [2] | cytotoxicity in leukemic cells [3]
1 | COC(=O)Nc1nc2ccc(C(=O)c3cccs3)cc2[nH]1 [nocodazole, reference compound] | statistically significant increases | – | –
2 | COc1cc(C(=O)O)ccc1NC(=O)[C@@H]1N[C@@H](CC(C)(C)C)[C@](C#N)(c2ccc(Cl)cc2F)[C@H]1c1cccc(Cl)c1F [RG7388, idasanutlin, reference compound] | – | pan-cytotoxicity | pan-cytotoxicity
3 | O=P1(N(CCCl)CCCl)NCCCO1 (stereo not shown) [cyclophosphamide monohydrate, reference compound] | statistically significant increases | – | –
